The values below are quoted from earlier work in patent US20070238696A1, “Dosage unit for cardioprotection” (priority 2000, published 2007).

The conditions of the data set: men, median intake 419 IU/day compared to median intake 6 IU/day; followed for four years.

For vitamin E, the relative risk reduction was 44%.
